From publication PMC5521769, “Identification of odorant binding proteins and chemosensory proteins in Microplitis mediator as well as functional characterization of chemosensory protein 3” (PLoS ONE, 2017)
Like-named read-outs stand apart in the source and are kept apart here. One block for each molecule: values may come before it.

Columns and labels:
[1] = tested on: MmedOBPs and MmedCSPs (MmdeOBP1–10, MmedCSP1); set-up: method as in PMID 20388293; conditions: MmdeOBP1–10 and MmedCSP1; ref [22], [23]; cited from earlier work
M. mediator = tested on: M. mediator; set-up: method as in PMID 20388293; conditions: ref [22], [23]; cited from earlier work
recombinant MmedCSP3 = recombinant MmedCSP3 (Microplitis mediator, UniProt A0A219T7S8); test: biochemical; assay type: binding
recombinant MmedCSP3, sequence (A0A219T7S8 entry or part of it): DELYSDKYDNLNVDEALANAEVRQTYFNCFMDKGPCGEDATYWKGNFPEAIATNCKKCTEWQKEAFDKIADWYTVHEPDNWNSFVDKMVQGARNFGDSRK
Protocol: The bis-ANS and all compounds were dissolved in HPLC purity-grade methanol with a concentration of 1 mM.
The bound chemical was evaluated based on its fluorescence intensity with the assumption that the protein was 100% active with a stoichiometry of 1: 1 (protein: ligand) saturation. The binding curves were linearized using a Scatchard plot, and the dissociation constants of the competitors were calculated from the corresponding IC50 values based on the following equation: Ki = [IC50] / (1 + [bis-ANS] / Kbis-ANS), where [bis-ANS] is the free concentration of bis-ANS and Kbis-ANS is the dissociation constant of the complex protein / bis-ANS [33].

[2] = protein and bis-ANS at 2 μM, competitor 2–40 μM, 50 mM Tris-HCl pH 7.4, mean ± SD, text values are ranges over the named group, read-out: Ki, dissociation constant

SMILES: CCC/C=C/C=O [(E)-2-hexen-1-al]
binding affinity to MmedOBPs and MmedCSPs [1]: no any binding affinity | electrophysiological and behavioral responses of M. mediator (M. mediator): could elicit electrophysiological and behavioral responses

SMILES: CC/C=C\CCOC(C)=O [(Z)-3-hexenyl acetate]
binding affinity to MmedOBPs and MmedCSPs [1]: no any binding affinity | electrophysiological and behavioral responses of M. mediator (M. mediator): could elicit electrophysiological and behavioral responses

SMILES: COC(=O)c1ccccc1O [Methyl salicylate]
Ki (recombinant MmedCSP3): 39.22 ± 0.25 µM

SMILES: CCCCCCCC/C=C\CCCCCCCC(=O)O [Octadecenoic acid]
Ki (recombinant MmedCSP3; [2]): 18.2 ± 1.74 µM

SMILES: CCCCCCCCCCCCCCCC(=O)O [Palmitic acid]
Ki (recombinant MmedCSP3): 22.2 ± 1.82 µM

SMILES: O=S(=O)(O)c1cccc2c(-c3ccc(Nc4ccccc4)c4c(S(=O)(=O)O)cccc34)ccc(Nc3ccccc3)c12 [bis-ANS, 4, 4’-dianilino-1,1’-binaphthyl-5,5’-sulfonic acid, reference compound]
Kd (recombinant MmedCSP3; 2 μM protein titrated with bis-ANS 2–16 μM, 50 mM Tris-HCl pH 7.4, read-out: dissociation constant of the MmedCSP3 / bis-ANS complexes): 1750 ± 420 nM

Continued, values first:

Ki (recombinant MmedCSP3; [2]): 32.9 ± 7.43 µM
SMILES: CCCC(=O)OCC [Ethyl butyrate]

Ki (recombinant MmedCSP3; [2]): 26.8 ± 1.27 µM
SMILES: C=C/C=C(\C)CC/C=C(\C)CCC=C(C)C [TMTT, (3E, 7E)-4,8, 12-trimethyltrideca-1,3,7, 11-tetraene]

Ki (recombinant MmedCSP3; [2]): 17.6 ± 1.19 µM
SMILES: CCCC/C=C\CCCCCCCCCCO [cis-11-hexadecanol]

Ki (recombinant MmedCSP3; [2]): 17.2 ± 1.67 µM
SMILES: CCCC/C=C\CCCCCCCCCC=O [cis-11-hexadecenyl Aldehyde, cis-11-hexadecenyl aldehyde]

Ki (recombinant MmedCSP3; [2]): 18.8 ± 2.06 µM
SMILES: CC/C=C/CCCCCCCCCCOC(C)=O [trans-11-tetradecenyl acetate]
